Data: BindingDB's records for doi:10.1016/j.bmc.2014.03.018 (Deakin University, 2014)

Assay: Antagonist activity at androgen receptor in human LNCAP cells assessed as inhibition of androgen-stimulated cell growth measured every 3 days

## CC(C)(O)c1cn(-c2ccc(Cl)c(C(F)(F)F)c2)nn1
  IC50: 49 µM

## CC(C)(O)c1cn(-c2ccc([N+](=O)[O-])c(C(F)(F)F)c2)nn1
  IC50: 45 µM
